According to patent US12649744B2, “N-(pyridin-2-yl)-6,7,8,9-tetrahydro-5h-5,8-epiminocyclohepta[c]pyridine-10-carboxamide derivatives and similar compounds as GPR65 modulators for the treatment of cancer” (PATHIOS THERAPEUTICS LIMITED, priority 2020, dated 2026):

These molecules were tested against human recombinant GPR65 (Homo sapiens, UniProt Q8IYL9) (assay: Human GPR65 cAMP HTRF antagonist assay). Conditions: 1321N1-hrGPR65 cells, assay pH of 7.2, cAMP HTRF; read-out: hGPR65 IC50.
Assay type: cell-based
Text: The “Human GPR65 cyclic adenosine monophosphate (cAMP) Homogeneous Time Resolved Fluorescence (HTRF) antagonist assay”, or simply “cAMP assay”, as described below, can be used to measure the potency of GPR65 modulators, which is expressed as the concentration of compound required to reduce the increase in cAMP concentration upon GPR65 activation by 50% (i.e. an IC50).
Human GPR65 Cyclic Adenosine Monophosphate (cAMP) Homogeneous Time Resolved Fluorescence (HTRF) Antagonist Assay Procedure
IC50 data was obtained by the following procedure:
1321N1 human astrocytoma cells stably expressing human recombinant GPR65 (1321N1-hrGPR65 cells, EuroscreenFast) were cultured according to the vendor's instructions.
Compounds were tested for their ability to antagonise GPR65, through measuring the concentration of cytoplasmic cAMP following treatment of the cells at a pH of 7.2 to activate GPR65 signalling and addition of the compound to be tested. The extent to which the expected rise in cAMP concentration upon GPR65 activation was suppressed by the added compound is indicative of its potency. The assay was carried out according to EuroscreenFast assay methodology as follows.
On the day of the assay, test compounds were added to 384-well, low volume, white microtiter plates by acoustic dispensing. KRH buffer (5 mM KCl, 1.25 mM MgSO4, 124 mM NaCl, 25 mM HEPES, 13.3 mM Glucose, 1.25 mM KH2PO4 and 1.45 mM CaCl2) was adjusted to pH 6.5, pH 7.6 and pH 8.4 by adding NaOH. 1321N1-hGPR65 cells were rapidly thawed and diluted in KRH, pH 7.6 prior to centrifugation at 300×g for 5 min and resuspension in assay buffer (KRH, pH 7.6, supplemented with 1 mM 3-isobutyl-1-methylxanthine (IBMX) and 200 μM ethylenediaminetetraacetic acid (EDTA)). Cells were added to assay plates at a density of 2,000 cells per well in a volume of 5 μl. Assay plates were briefly centrifuged at 100×g and then incubated at room temperature for 30 min. Cells were stimulated by the addition of 5 μL KRH, pH 6.5, to achieve an assay pH of 7.2, while control wells received 5 μl KRH, pH 8.4 to achieve an assay pH of 7.9. Assay plates were briefly centrifuged at 100×g and then incubated at room temperature for 30 min.
Accumulation of cAMP was detected by cAMP HTRF kit (Cisbio). d2-labeled cAMP and cryptate-labeled anti-cAMP antibody in Lysis and Detection Buffer (Cisbio) were added to assay plates, and the plates were incubated at room temperature for 1 h. HTRF measurements were performed using a Pherastar FSX instrument. Acceptor and donor emission signals were measured at 665 nm and 620 nm, respectively, and HTRF ratios were calculated as signal665 nm/signal620nm×10^4. Data were normalised to high and low control values and fitted with 4-parameter logistic regression to determine hGPR65 IC50 values for the test compounds, which are shown in Table 1.

human recombinant GPR65, sequence (Q8IYL9 whole entry): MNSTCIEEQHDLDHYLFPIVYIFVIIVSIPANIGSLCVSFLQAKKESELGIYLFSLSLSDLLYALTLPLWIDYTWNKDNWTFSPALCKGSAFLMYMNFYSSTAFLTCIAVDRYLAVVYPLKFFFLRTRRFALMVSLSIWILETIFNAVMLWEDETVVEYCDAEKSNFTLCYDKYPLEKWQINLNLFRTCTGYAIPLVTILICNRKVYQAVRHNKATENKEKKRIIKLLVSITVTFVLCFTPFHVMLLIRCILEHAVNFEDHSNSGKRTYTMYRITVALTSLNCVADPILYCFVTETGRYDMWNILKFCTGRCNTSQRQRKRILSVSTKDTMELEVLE

Question: With O=C(Nc1nnc(C2CC2)s1)N1[C@H]2CC[C@@H]1c1ccnc(F)c1C2 [Compound 31, (5R,8S)-N-(5-Cyclopropyl-1,3,4-thiadiazol-2-yl)-1-fluoro-6,7,8,9-tetrahydro-5H-5,8-epiminocyclohepta[c]pyridine-10-carboxamide] as the molecule, how does the IC50 read?
Answer: 500 to 5000 nM

Question: O=C(Nc1nc(Cl)c(Cl)cc1F)N1[C@H]2CC[C@@H]1c1ccnc(F)c1C2 [Compound 20, (5R,8S)-N-(5,6-dichloro-3-fluoropyridin-2-yl)-1-fluoro-6,7,8,9-tetrahydro-5H-5,8-epiminocyclohepta[c]pyridine-10-carboxamide] was tested. Which IC50 did it give?
Answer: 500 to 5000 nM

Question: O=C(Nc1ccc(Cl)c(Cl)n1)N1[C@H]2CC[C@@H]1c1c[nH]c(=O)cc1C2 [Compound 5, (6S,9R)-N-(5,6-dichloropyridin-2-yl)-3-oxo-3,5,6,7,8,9-hexahydro-2H-6,9-epiminocyclo-hepta[c]pyridine-10-carboxamide] was tested. Which IC50 did it give?
Answer: > 5000 nM

Question: For O=C(Nc1ccc(Cl)c(Cl)n1)N1[C@H]2CC[C@@H]1c1ccnc(F)c1C2 [Compound 3, (5R,8S)-N-(5,6-dichloropyridin-2-yl)-1-fluoro-6,7,8,9-tetrahydro-5H-5,8-epiminocyclohepta[c]pyridine-10-carboxamide], which IC50 is on record?
Answer: 500 to 5000 nM

Question: How did the IC50 turn out when N#Cc1ccc(NC(=O)N2[C@H]3CC[C@@H]2c2ccnc(F)c2C3)nc1Cl [Compound 47, (5R,8S)-N-(6-Chloro-5-cyanopyridin-2-yl)-1-fluoro-6,7,8,9-tetrahydro-5H-5,8-epiminocyclohepta[c]pyridine-10-carboxamide] was run?
Answer: 500 to 5000 nM

Question: Which IC50 does the source give for O=C(Nc1cnc(Cl)cc1F)N1[C@H]2CC[C@@H]1c1ccnc(F)c1C2 [Compound 16, (5R,8S)-N-(6-chloro-4-fluoropyridin-3-yl)-1-fluoro-6,7,8,9-tetrahydro-5H-5,8-epiminocyclohepta[c]pyridine-10-carboxamide] here?
Answer: 500 to 5000 nM

Question: How did the IC50 turn out when N#Cc1cnc(NC(=O)N2[C@H]3CC[C@@H]2c2ccnc(F)c2C3)c(C(F)(F)F)c1 [Compound 38, (5R,8S)-N-(5-Cyano-3-(trifluoromethyl)pyridin-2-yl)-1-fluoro-6,7,8,9-tetrahydro-5H-5,8-epiminocyclohepta[c]pyridine-10-carboxamide] was run?
Answer: < 500 nM

Question: With O=C(Nc1cc(Cl)c(Cl)cn1)N1[C@H]2CC[C@@H]1c1c[nH]c(=O)cc1C2 [Compound 4, (6S,9R)-N-(4,5-dichloropyridin-2-yl)-3-oxo-3,5,6,7,8,9-hexahydro-2H-6,9-epiminocyclo-hepta[c]pyridine-10-carboxamide] as the molecule, how does the IC50 read?
Answer: < 500 nM

Question: For O=C(Nc1cnc(C(F)(F)F)cn1)N1C2CCC1c1cncnc1C2 (racemic) [Compound 6, (±)-N-(5-(trifluoromethyl)pyrazin-2-yl)-6,7,8,9-tetrahydro-5H-5,8-epiminocyclohepta-[d]pyrimidine-10-carboxamide], which IC50 is on record?
Answer: > 5000 nM

Question: Which IC50 does the source give for O=C(Nc1nnc(-c2ccccc2)s1)N1[C@H]2CC[C@@H]1c1ccnc(F)c1C2 [Compound 33, (5R,8S)-1-Fluoro-N-(5-phenyl-1,3,4-thiadiazol-2-yl)-6,7,8,9-tetrahydro-5H-5,8-epiminocyclohepta[c]pyridine-10-carboxamide] here?
Answer: < 500 nM

Question: O=C(Nc1ncc(C(F)(F)F)cn1)N1[C@H]2CC[C@@H]1c1ccnc(F)c1C2 [Compound 25, (5R,8S)-1-fluoro-N-(5-(trifluoromethyl)pyrimidin-2-yl)-6,7,8,9-tetrahydro-5H-5,8-epiminocyclohepta[c]pyridine-10-carboxamide] was tested. Which IC50 did it give?
Answer: 500 to 5000 nM

Question: Which IC50 does the source give for O=C(Nc1cc(C(F)(F)F)ncc1F)N1[C@H]2CC[C@@H]1c1c[nH]c(=O)cc1C2 [Compound 14, (6S,9R)-N-(5-fluoro-2-(trifluoromethyl)pyridin-4-yl)-3-oxo-3,5,6,7,8,9-hexahydro-2H-6,9-epiminocyclohepta[c]pyridine-10-carboxamide] here?
Answer: 500 to 5000 nM

Question: For O=C(Nc1nc(-c2ccccc2)no1)N1[C@H]2CC[C@@H]1c1ccnc(F)c1C2 [Compound 42, (5R,8S)-1-Fluoro-N-(3-phenyl-1,2,4-oxadiazol-5-yl)-6,7,8,9-tetrahydro-5H-5,8-epiminocyclohepta[c]pyridine-10-carboxamide], which IC50 is on record?
Answer: 500 to 5000 nM

Question: Cn1nc(NC(=O)N2[C@H]3CC[C@@H]2c2ccnc(F)c2C3)cc1C(F)(F)F [Compound 48, (5R,8S)-1-fluoro-N-(1-methyl-5-(trifluoromethyl)-1H-pyrazol-3-yl)-6,7,8,9-tetrahydro-5H-5,8-epiminocyclohepta[c]pyridine-10-carboxamide] was tested. Which IC50 did it give?
Answer: > 5000 nM
